IC50 data for one compound are collected here from article PMC9596378, “Discovery and molecular basis of subtype-selective cyclophilin inhibitors” (Nature Chemical Biology, 2022).

Experiment in all cases: Chymotrypsin coupled prolyl-isomerase assay
Assay [1] has as its target T1, CypA (Homo sapiens, UniProt P62937).
T1 construct: PPIA (UniProtKB Entry P62937: residues 1–165); made in house; host or cells: E. coli BL21(DE3)
The format is biochemical. The gist of the method:
(§1)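 Steps: cyclophilin plus compound 5 min at 2–3 °C; α-chymotrypsin added, 5 min more; Suc-AAPF-AMC substrate in LiCl/trifluoroethanol injected and fluorescence followed 330 s. Finals: 5 nM enzyme, 25 µM chymotrypsin, 5 µM substrate, 0.25% DMSO.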

Assay [2] has as its target T2, CypC (Homo sapiens, UniProt P45877).
T2 construct: PPIC (UniProtKB Entry P45877: residues 24–212); host or cells: E. coli BL21(DE3)
The format is biochemical. The following applies: wild-type CypC; read-out: Wild-Type Cyclophilin Prolyl Isomerase Inhibition IC50 Values, CypC. The gist of the method:
as §1

Assay [3] concerns the target T3, CypE (Homo sapiens, UniProt Q9UNP9).
T3 construct: PPIE (UniProtKB Entry Q9UNP9: residues 131–301); host or cells: E. coli BL21(DE3)
The format is biochemical. Particulars: wild-type CypE; read-out: Wild-Type Cyclophilin Prolyl Isomerase Inhibition IC50 Values, CypE. A digest of the protocol: as §1

The target in assay [4] is T4, CypG (Homo sapiens, UniProt Q13427).
T4 construct: PPIG (UniProtKB Entry Q13427: residues 1–179); His6 with thrombin site (pET28a LIC leader) (N); host or cells: E. coli BL21(DE3)
T4 sequence (Q13427 1-179): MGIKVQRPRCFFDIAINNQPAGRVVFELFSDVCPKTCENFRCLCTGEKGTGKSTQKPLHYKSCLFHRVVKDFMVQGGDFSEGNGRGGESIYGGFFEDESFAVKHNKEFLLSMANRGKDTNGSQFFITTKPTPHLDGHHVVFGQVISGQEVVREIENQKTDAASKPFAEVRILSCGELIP
The format is biochemical. The following applies: wild-type CypG; read-out: Wild-Type Cyclophilin Prolyl Isomerase Inhibition IC50 Values, CypG. A digest of the protocol:
as §1

The target of assay [5] is T5, CypH (Homo sapiens, UniProt O43447).
T5 construct: PPIH (UniProtKB Entry O43447: residues 1–177); His6 with TEV site (2BT vector leader) (N); made in house; host or cells: E. coli BL21(DE3)
The format is biochemical. A digest of the protocol: as §1

For assay [6], the target named is Cyp40 (Homo sapiens, UniProt Q08752). Particulars: Wild-Type Cyclophilin Prolyl Isomerase Inhibition IC50 Values, Cyp40, wild-type Cyp40. The gist of the method: as §1
Assay [7] has as its target T6, NKTR (Homo sapiens, UniProt P30414).
T6 construct: NKTR (UniProtKB Entry P30414: residues 7–179); host or cells: E. coli BL21(DE3)
T6 sequence (P30414 7-179): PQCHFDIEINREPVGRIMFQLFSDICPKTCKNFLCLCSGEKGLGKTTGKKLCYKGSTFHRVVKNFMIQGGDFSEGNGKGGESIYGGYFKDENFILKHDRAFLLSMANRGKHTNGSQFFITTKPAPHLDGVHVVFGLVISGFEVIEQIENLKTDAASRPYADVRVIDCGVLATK
The format is biochemical.
Protocol: Adapting a previously described protocol[51], with an Agilent Bravo Velocity 11 with a 384ST head, 90 µL assay buffer (25 mM HEPES pH 7.3, 100 mM NaCl, 0.01% Triton X-100) containing 5.28 nM cyclophilin was added into a flat, clear-bottom, black 384-well plate pre-chilled in a Corning CoolBox at 2–3 °C. Five microliters of compound pre-dissolved in 5% DMSO/assay buffer was then added to appropriate wells and incubated at 2–3 °C for 5 min. Five microliters of 0.5 mM α-chymotrypsin from bovine pancreas (Type II, lyophilized powder, Millipore-Sigma) in 20% 1 mM HCl/Assay Buffer was then added to each well and incubated at 2–3 °C for 5 min. […] Using the internal liquid handling system of the FLIPR, 1 µL 0.5 mM Suc-AAPF-AMC (Chymotrypsin Substrate II, Millipore-Sigma) dissolved in 0.55 M LiCl/2,2,2-trifluoroethanol was added to each well, which was then mixed for 5 s, followed by immediate fluorescence measurements every 1 s for 330 s using a 360–380 nm excitation LED module and a 400–460 nm emission filter. Final concentrations of the plate include 5 nM cyclophilin, 0.25% DMSO, 25 µM α-chymotrypsin, 5 µM Suc-AAPF-AMC. Raw fluorescence data was analyzed by non-linear regression analysis with Prism v.9 by fitting one-phase association curves to each well. Analyses were halted after the calculated maximum fluorescent value owing to observed fluorescent bleaching during the sustained fluorescent plateau. Rate constants calculated for each well (s^−1) were then normalized to substrate only (no prolyl-isomerase) and enzyme + substrate only controls. IC50 values were calculated as the value at which 50% inhibition was achieved on the non-linear regression fitted curve of each compound.

Assay [8] has as its target T7, PPIL1 (Homo sapiens, UniProt Q9Y3C6).
T7 construct: PPIL1 (UniProtKB Entry Q9Y3C6: residues 1–166); made in house; host or cells: E. coli BL21(DE3)
T7 sequence (Q9Y3C6 1-166): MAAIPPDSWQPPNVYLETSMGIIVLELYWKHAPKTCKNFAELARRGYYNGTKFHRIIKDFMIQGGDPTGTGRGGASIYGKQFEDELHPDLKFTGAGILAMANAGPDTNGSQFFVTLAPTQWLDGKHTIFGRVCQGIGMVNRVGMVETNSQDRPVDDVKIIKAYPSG
The format is biochemical. The following applies: wild-type PPIL1; read-out: Wild-Type Cyclophilin Prolyl Isomerase Inhibition IC50 Values, PPIL1.

Like-named read-outs stand apart in the source and are kept apart here.

T1 sequence (P62937 whole entry, the tested form may be a part): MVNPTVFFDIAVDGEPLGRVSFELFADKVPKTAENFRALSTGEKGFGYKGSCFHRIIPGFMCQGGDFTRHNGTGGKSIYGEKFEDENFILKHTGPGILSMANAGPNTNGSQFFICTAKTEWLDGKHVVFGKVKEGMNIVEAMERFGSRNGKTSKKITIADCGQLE
T5 sequence (O43447 whole entry, the tested form may be a part): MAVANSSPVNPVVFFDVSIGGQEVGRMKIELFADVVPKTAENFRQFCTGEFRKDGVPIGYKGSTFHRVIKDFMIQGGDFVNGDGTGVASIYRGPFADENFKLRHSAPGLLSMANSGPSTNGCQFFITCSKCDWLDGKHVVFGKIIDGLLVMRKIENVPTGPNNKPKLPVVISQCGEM
Cyp40, sequence (Q08752 1-183): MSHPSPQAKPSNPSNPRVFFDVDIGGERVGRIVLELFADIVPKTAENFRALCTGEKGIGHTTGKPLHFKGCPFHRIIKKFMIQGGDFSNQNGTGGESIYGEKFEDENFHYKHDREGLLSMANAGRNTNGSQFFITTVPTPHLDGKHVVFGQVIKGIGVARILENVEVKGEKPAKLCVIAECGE
T2 sequence (P45877 24-212): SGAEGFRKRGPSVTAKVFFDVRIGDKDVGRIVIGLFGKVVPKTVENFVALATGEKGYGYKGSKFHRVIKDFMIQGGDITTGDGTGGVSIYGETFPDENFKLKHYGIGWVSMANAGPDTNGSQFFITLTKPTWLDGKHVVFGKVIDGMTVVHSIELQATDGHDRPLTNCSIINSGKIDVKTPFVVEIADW
T3 sequence (Q9UNP9 131-301): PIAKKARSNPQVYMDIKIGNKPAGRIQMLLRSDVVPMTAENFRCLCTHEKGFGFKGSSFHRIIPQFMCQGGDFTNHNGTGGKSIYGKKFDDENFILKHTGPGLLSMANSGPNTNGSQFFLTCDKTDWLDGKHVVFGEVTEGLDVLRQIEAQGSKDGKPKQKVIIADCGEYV

In the case of `NCCOCCNC(=O)C1CCNC(=O)C=CC(=O)N2CCCC(C2)C(=O)NC(Cc2ccco2)C(=O)NCc2ccccc2CC(=O)N1` (centres unmarked) [JOMBt], the IC50 in assay [1] (prolyl-isomerase inhibition, 5 nM cyclophilin, read-out: IC50 CypA) is around 60 µM; in assay [1] (wild-type CypA, read-out: Wild-Type Cyclophilin Prolyl Isomerase Inhibition IC50 Values, CypA), 60 µM; in assay [2], 23 µM; in assay [3], 23 µM; in assay [4] it was 16 µM; in assay [5] (prolyl-isomerase inhibition, 5 nM cyclophilin, read-out: IC50 CypH), around 100 µM. For the same compound, the IC50 was 100 µM in assay [5] (wild-type CypH, read-out: Wild-Type Cyclophilin Prolyl Isomerase Inhibition IC50 Values, CypH); 19 µM in assay [6]; around 60 µM in assay [7] (prolyl-isomerase inhibition, 5 nM cyclophilin, read-out: IC50 NKTR); 60 µM in assay [7] (wild-type NKTR, read-out: Wild-Type Cyclophilin Prolyl Isomerase Inhibition IC50 Values, NKTR); 40 µM in assay [8].

The term IC50 denotes the concentration needed to halve the response being measured.
